Consider 6 molecules from patent US20240246968A1, “SMALL MOLECULE INHIBITORS OF KRAS G12C MUTANT” (Merck Sharp & Dohme LLC, priority 2021, published 2024).

pIC50: −log10 of the molar value.

In one assay the test system is MIA PaCa-2 cells. As to the kind of experiment: Growth inhibition activity on KRAS-G12C mutant cell line (MIA PaCa-2), CellTiter-Glo 3D. It counts as cell-based, human. The settings on record: MIA PaCa-2, 3-day culture with compound. Put shortly: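 Luminescence readout (CellTiter-Glo 3D) after 3 days of compound treatment at 37 °C, 5% CO2, 0.2% final DMSO, gave % growth inhibition versus no-compound wells, from which IC50 (nM) was derived; cells had been plated in 10% FBS RPMI1640 one day before dosing.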

The target in assay [1] is T1, interaction between recombinant K-Ras4B G12C mutant protein and cRAF RAS-binding domain (cRAF-RBD) (Homo sapiens, UniProt P01116, G12C).
T1 construct: made in house; host or cells: E. coli
The assay can be described thus: Inhibitory activity on interaction between KRAS G12C and cRAF (Alpha technology). It counts as biochemical. The settings on record: GMPPNP-bound KRAS G12C incubated with compound at 25° C. for 1 hour, then cRAF-RBD; Alpha signal. The gist of the method: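 Alpha readout of cRAF-RBD (aa 50-132) binding to KRAS G12C (aa 1-169) after 1.5 h RT, following 1 h, 25° C compound preincubation with GMPPNP-bound protein (pH 7.5 Tris, 1 mM MgCl2, TCEP, Tween 20). IC50 fitted from titrations, with GDP-bound KRAS as 100% and DMSO as 0% inhibition.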

Assay [2] addresses Gppcp-bound recombinant K-Ras4B G12C mutant protein (amino acids 1-169, C51S/C80L/C118S) (Homo sapiens, UniProt P01116, C118S/C51S/C80L/G12C). As to the kind of experiment: KRASG12C binding assay (LC-MS, compound binding rate). The settings on record: test compound final concentration 0.5 μM, 25° C., 1 hour. Put shortly: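 Covalent adduct formation measured by deconvoluted intact-mass LC-MS after 1 h at 25 °C with compound at 0.5 μM final and 50 nM Gppcp-loaded KRAS G12C (residues 1-169, C51S/C80L/C118S). Buffer: TBS, 0.1 mM TCEP, 0.25 mM MgCl2, 50 μM Gppcp. Binding % = one-molecule adduct/(unbound + all adducts), binned A ≥80, B 60–80, C 40–60, D 20–40, E <20.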

`Cc1nc2c(Cl)c(-c3cccn4c(C(=O)c5cc(F)c(NC(=O)/C=C/CNC(C)(C)C)c(F)c5)ccc34)c(C(F)(F)F)cc2n1C` (single isomer, unassigned) [Example 56-1, (E)-4-(tert-butylamino)-N-(4-(8-(4-chloro-1,2-dimethyl-6-(trifluoromethyl)-1H-benzo[d]imidazol-5-yl)indolizine-3-carbonyl)-2,6-difluorophenyl)but-2-enamide]: the pIC50 is 5.96 in the assay with MIA PaCa-2 cells and 6.35 in assay [1]. The binding rate entry in assay [2] is reported as “A (A binding rate of 80% or more is rated “A”)”.
Regarding `Cc1nc2c(Cl)c(-c3cccn4c(C(=O)c5cc(F)c(NC(=O)/C=C/CNC(C)(C)C)c(F)c5)ccc34)c(C(F)(F)F)cc2n1C` (single isomer, unassigned) [Example 56-2, (E)-4-(tert-butylamino)-N-(4-(8-(4-chloro-1,2-dimethyl-6-(trifluoromethyl)-1H-benzo[d]imidazol-5-yl)indolizine-3-carbonyl)-2,6-difluorophenyl)but-2-enamide], the pIC50 with MIA PaCa-2 cells was 7.54; in assay [1], 7.68. For the same molecule, the binding rate entry in assay [2] was “A (A binding rate of 80% or more is rated “A”)”.
On to `Cc1nc2c(Cl)c(-c3cccn4c(C(=O)c5cc(F)c(NC(=O)/C=C/CNC6CCOCC6)c(F)c5)ccc34)c(C(F)(F)F)cc2n1C` (single isomer, unassigned) [Example 57-1, (E)-N-(4-(8-(4-chloro-1,2-dimethyl-6-(trifluoromethyl)-1H-benzo[d]imidazol-5-yl)indolizine-3-carbonyl)-2,6-difluorophenyl)-4-((tetrahydro-2H-pyran-4-yl)amino)but-2-enamide], for which the negative-log IC50 (pIC50) is 7.70 in the assay on MIA PaCa-2 cells and 7.37 in assay [1]. Besides, the binding rate entry in assay [2] is recorded as “A (A binding rate of 80% or more is rated “A”)”.
With `Cc1nc2c(Cl)c(-c3cccn4c(C(=O)c5cc(F)c(NC(=O)/C=C/CNC6CCOCC6)c(F)c5)ccc34)c(C(F)(F)F)cc2n1C` (single isomer, unassigned) [Example 57-2, (E)-N-(4-(8-(4-chloro-1,2-dimethyl-6-(trifluoromethyl)-1H-benzo[d]imidazol-5-yl)indolizine-3-carbonyl)-2,6-difluorophenyl)-4-((tetrahydro-2H-pyran-4-yl)amino)but-2-enamide], the values for the pIC50 (in the assay on MIA PaCa-2 cells; in assay [1]) were 5.96 and 6.10, respectively. In assay [2], the binding rate result is recorded as “A (A binding rate of 80% or more is rated “A”)”.
`COc1c(-c2cccn3c(C(=O)c4cc(F)c(NC(=O)/C=C/CN[C@H]5CC[C@H](OC)CC5)c(F)c4)ccc23)c(C(F)(F)F)cc2c1nc(C)n2C` (single isomer, unassigned) [Example 60-1, (E)-N-(2,6-difluoro-4-(8-(4-methoxy-1,2-dimethyl-6-(trifluoromethyl)-1H-benzo[d]imidazol-5-yl)indolizine-3-carbonyl)phenyl)-4-(((1r,4r)-4-methoxycyclohexyl)amino)but-2-enamide]: the negative logarithm of the IC50 (pIC50) (in the assay on MIA PaCa-2 cells; in assay [1]) was 5.80 throughout. For the same molecule, the binding rate result in assay [2] is reported as “A (A binding rate of 80% or more is rated “A”)”.
As for `COc1c(-c2cccn3c(C(=O)c4cc(F)c(NC(=O)/C=C/CN[C@H]5CC[C@H](OC)CC5)c(F)c4)ccc23)c(C(F)(F)F)cc2c1nc(C)n2C` (single isomer, unassigned) [Example 60-2, (E)-N-(2,6-difluoro-4-(8-(4-methoxy-1,2-dimethyl-6-(trifluoromethyl)-1H-benzo[d]imidazol-5-yl)indolizine-3-carbonyl)phenyl)-4-(((1r,4r)-4-methoxycyclohexyl)amino)but-2-enamide], the negative-log IC50 (pIC50) in the assay on MIA PaCa-2 cells was 7.82; in assay [1] it was 7.59. Further, the binding rate result in assay [2] is “A (A binding rate of 80% or more is rated “A”)”.
